{
  "source": "patent US6753323B2",
  "about": "“Topical administration of amifostine and related compounds” (MedImmune Oncology, Inc., priority 1998, dated 2004)",
  "key": {"hair matrix cells": {"tested_on": "hair matrix cells", "conditions": "topical 0.3 mg in 0.2 mL Ringer's solution on depilated mouse skin before fractionated irradiation; cited from earlier work"}, "bacteria, yeast and mold": {"tested_on": "bacteria, yeast and mold", "test": "USP 23 Antimicrobial Preservatives-Effectiveness test, overall", "assay_type": "cell-based", "conditions": "each of the tested microorganisms, 28 day test", "protocol": "WR-1065 was evaluated according to a protocol based on the “Antimicrobial Preservatives-Effectiveness” Test, outlined in the United States Pharmaeopeia, 23rd ed. (1995).\nPrior to inoculation of the test article, a 1:10 dilution is prepared in diluent and 1.0 mL is plated. Additional serial dilutions are prepared and plated as necessary. Two separate sets are prepared as above. One set is prepared for bacteria counts, and one set is prepared for yeast/mold counts.\nEnumeration of viable bacterial and fungal populations in the inoculated test article is conducted at 7, 14, 21 and 28 days post inoculation. At each time interval, a 1.0 g (or mL) specimen is removed from each inoculated specimen and plate counts are obtained by preparing serial dilutions in 9 mL tubes of diluent and plating aliquots from each dilution. Following incubation, plates are observed and the CFU's are enumerated. The number obtained is multiplied by the dilution factor to give the number of viable organisms per g (or mL) of test article at each time interval. At each time interval, the inoculated product is examined and any changes observed in the appearance of the test article during the challenge period are recorded. […]"}, "[1]": {"test": "Solubility of WR-1065 salts in various solvents", "assay_type": "physicochemical", "conditions": "Water", "protocol": "As mentioned above, salts of amifostine and related compounds are included within the scope of the invention. […] Several salts of WR-1065 were prepared, and their solubility in various solvents was measured."}},
  "data": [
    {"smiles": "NCCCNCCS", "note": "[WR-1065, S-2-(3-aminopropylamino) ethanethiol]", "values": [
      {"measurement": "protection of hair matrix cells from radiation-induced injury", "setting": "hair matrix cells", "value": "some effectiveness"},
      {"measurement": "preservative efficacy according to USP 23 criteria", "setting": "bacteria, yeast and mold", "value": "effective preservative"}
    ]},
    {"smiles": "Cl.Cl.NCCCNCCS", "note": "[di-HCl]", "values": [
      {"measurement": "Est. Solubitity HPLC Assay", "setting": "[1]; as salt", "value": 849, "unit": "mg/mL"},
      {"measurement": "Est. Solubitity HPLC Assay", "setting": "[1]; expressed as free base", "value": 550, "unit": "mg/mL"}
    ]}
  ]
}
